According to patent publication US11311485B2, “Self-assembled particles for targeted delivery of immunomodulators to treat autoimmunity and cancer” (UNIVERSITY OF MARYLAND, BALTIMORE COUNTY, priority 2018, dated 2022):

Assay: Loading capacity of filomicelles (PEG PPS) with other immunosuppressives used in lupus
Assay type: physicochemical
Details: drug per mg of filomicelles, FIG. 10
Description: Transmission electron microscopy (TEM) images of loaded and unloaded FMs show no difference in morphology or structure, as shown in FIG. 3.

loading into filomicelles (PEG-PPS): ~400 µg/mg
Structure (SMILES): Cn1cnc([N+](=O)[O-])c1Sc1ncnc2nc[nH]c12 [AZA, azathioprine]
